Series [1] can be described thus: association constant of dioxane in the cucurbituril. It counts as binding. To be noted: relative to tetramethylcucurbit[2,4]uril.
Series [2] is described as follows: association constant of methane in the cucurbituril. In kind it is binding. To be noted: relative to decamethylcucurbit[5]uril.
The nature of a further series: solubility in water. In kind it is physicochemical. To be noted: compared with unsubstituted cucurbit[6]uril.

For the substance unsubstituted cucurbit[6]uril, the “association constant of dioxane” value in series [1] is “two times higher”. On to dimethylcucurbit[1,4]uril, for which, in series [2], the “association constant of methane” value was “three times higher”. For α, δ-tetramethylcucurbit[2,4]uril, the solubility in water result in “solubility in water” is “greater solubility in water than unsubstituted cucurbit[6]uril”.

These data come from patent publication US7501523B2, “Method for preparing cucurbiturils” (NewSouth Innovations Pty Limited, priority 2003, dated 2009).
